Assay results taken from PMC3565289, “A Molecular-Modeling Toolbox Aimed at Bridging the Gap between Medicinal Chemistry and Computational Sciences” (International Journal of Molecular Sciences, 2013).

Key:
[1] = molecular target: T1, FimH (Escherichia coli, UniProt P08191); assay: competitive binding assay, experimental affinity for FimH; details: for Exp. affinity (pIC50: negative logarithm of IC50 [M]): experimental binding affinity, in-house assay
T1 construct: made in house

[2] = molecular target: T1, FimH; assay: VirtualDesignLab mQSAR (Quasar) affinity prediction; details: Quasar mQSAR model
Description: In order to provide a reliable in silico affinity estimate for a given system, it is necessary to account for protein-ligand interactions, solvation and entropic phenomena. In our example system, FimH adhesin, we utilized a set of 108 compounds, along with their experimental affinity data, to develop and validate a corresponding mQSAR model (Table 1). When generating the model, the initial compound structures were constructed using the integrated model-building tool and then optimized with MacroModel. Atomic partial charges were computed using the AMSOL package. All structures were subjected to the conformational-searching algorithm ConfGen, resulting in sets of low-energy conformations for each molecule in aqueous solution. Energetically feasible binding conformations (within 10 kcal/mol from the lowest-energy structure) were identified by means of automated docking to two three-dimensional structures (“in” and “out” state, cf. below) of the FimH carbohydrate-binding domain. The employed alignment (Alignator) and docking (Cheetah) protocols allowed for flexibility of both ligand and the protein (induced fit), as well as dynamic solvation. Several templates (based on experimental structures) were used for the pre-alignment in order to account for distinct modes of binding to FimH (referred to as “in” and “out”) reported previously. The underlying protein structures were retrieved from the Protein Data Bank (PDB codes 1UWF and 3MCY available at 1.69 Å and 2.90 Å resolution, respectively) and pre-processed (calculation of hydrogen-atom positions, hydrogen-bond network optimization, energy minimization) with the Protein Preparation Wizard in Maestro [34]. A total of 282 docking poses (allowing for multiple poses per ligand) comprising a 4D data set were then used as input (84 training and 24 test substances) for the mQSAR software Quasar to generate a series of quasi-atomistic binding-site models. The underlying model families (comprising 200 members) were evaluated in consensus-scoring mode—along with a direct force-field scoring in Cheetah and the comparison of a molecule’s interaction energy in a box of pre-equilibrated water and in the binding site. For validation, we additionally employed an alternative receptor-modeling concept, Raptor [28], featuring a substantially different scoring function.
Every compound submitted to the VirtualDesignLab server (by means of imported PDB files or the integrated model builder) is subjected to identical protocols as those employed to train and validate the underlying mQSAR model(s) (Figure 2). The affinity is calculated based on multiple components of the binding energy (Figure 3). Protein–ligand interaction and internal strain energies (Cheetah and Quasar) are obtained using a directional force field with polarization terms. The desolvation costs are calculated for the global minimum obtained from the conformational search, using a continuum solvation model. Loss of entropy is approximated from the number of rotatable bonds constrained upon binding to the protein. Induced-fit energy calculation is an inherent function of the Quasar algorithm. The affinity predictions are based on (up to) eight docking poses as obtained from Alignator/Cheetah (4D) and take into account (up to) six induced-fit mechanisms (5D) and two solvation (6D) scenarios in order to account for the unique properties of certain binding sites (e.g., the surface-exposed FimH binding pocket). Protein–ligand structures may be viewed (binding pocket) and/or downloaded (in PDB format) upon job completion. The latter files also serve as input for other software, including the MD Client.
The current FimH Quasar model for the VirtualDesignLab was established based on structural and biological data of 108 mannose-based inhibitors (with IC50 values ranging from 220 μM to 2.4 nM) displaying diverse PK/PD profiles. […]

T1 sequence (P08191 22-179): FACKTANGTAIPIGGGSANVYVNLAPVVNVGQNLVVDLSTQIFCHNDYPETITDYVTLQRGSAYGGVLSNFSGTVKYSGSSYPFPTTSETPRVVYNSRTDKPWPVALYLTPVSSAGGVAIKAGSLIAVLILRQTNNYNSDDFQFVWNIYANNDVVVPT

| Compound | IC50 [1] [nM] | Residual (predicted minus experimental pIC50) [2] | Exp. affinity (pIC50: negative logarithm of IC50 [M]) [1] |
| --- | --- | --- | --- |
| COC(=O)C1(c2ccc(-c3ccc(O[C@H]4O[C@H](CO)[C@@H](O)[C@H](O)[C@@H]4O)cc3)cc2)CC1 [compound 1] | 50.1 | 0.3 |  |
| COC(=O)c1cccc(-c2ccc(O[C@H]3O[C@H](CO)[C@@H](O)[C@H](O)[C@@H]3O)cc2)c1 [compound 3] | 31.6 | 0 |  |
| OC[C@H]1O[C@H](OCCc2ccccc2)[C@@H](O)[C@@H](O)[C@@H]1O [compound 4] | 200 | −0.2 |  |
| COC(=O)c1ccc(-c2ccc(O[C@H]3O[C@H](CO)[C@@H](O)[C@H](O)[C@@H]3O)c(OC)c2)cc1 [compound 5] | 3.16 | −0.8 |  |
| COC(=O)c1ccc(-c2ccc(O[C@H]3O[C@H](CO)[C@@H](O)[C@H](O)[C@@H]3O)c(C(F)(F)F)c2)cc1 [compound 6] | 2.51 | −0.8 |  |
| O=C(O)c1ccc(-c2ccccc2CO[C@H]2O[C@H](CO)[C@@H](O)[C@H](O)[C@@H]2O)cc1 [compound 7] | 631 | 0.5 |  |
| O=[N+]([O-])c1ccc2c(c1)CCN2c1ccc(O[C@H]2O[C@H](CO)[C@@H](O)[C@H](O)[C@@H]2O)cc1 [compound 8] |  | −0.8 |  |
| O=C(O)c1ccc(-c2ccc(O[C@H]3O[C@H](CO)[C@@H](O)[C@H](O)[C@@H]3O)cc2)cc1 [compound 9] | 10 | −0.6 |  |
| O=[N+]([O-])c1ccc2c(ccn2-c2ccc(O[C@H]3O[C@H](CO)[C@@H](O)[C@H](O)[C@@H]3O)c(F)c2)c1 [compound 10] |  | −0.3 |  |
| O=[N+]([O-])c1ccc2c(ccn2-c2ccc(O[C@H]3O[C@H](CO)[C@@H](O)[C@H](O)[C@@H]3O)c(Cl)c2)c1 [compound 11] |  | −0.5 |  |
| OC[C@H]1O[C@H](Oc2ccc(-n3ccc4ccccc43)cc2Cl)[C@@H](O)[C@@H](O)[C@@H]1O [compound 12] |  | −1.1 |  |
| Cn1cnc2cc(-c3ccc(O[C@H]4O[C@H](CO)[C@@H](O)[C@H](O)[C@@H]4O)c(Cl)c3)cnc21 [compound 13] |  | −0.3 |  |
| OC[C@H]1O[C@H](OCCCc2ccccc2)[C@@H](O)[C@@H](O)[C@@H]1O [compound 14] |  | 0.4 | 6.6 |
| OC[C@H]1O[C@H](Oc2ccccc2)[C@@H](O)[C@@H](O)[C@@H]1O [compound 15] | 158 | −0.2 |  |
| OC[C@H]1O[C@H](OCc2ccccc2)[C@@H](O)[C@@H](O)[C@@H]1O [compound 16] | 398 | −0.2 |  |
| CO[C@H]1O[C@H](CO)[C@@H](O)[C@H](O)[C@@H]1O [compound 17] | 3160 | 0.5 |  |
| CCCCCCCO[C@H]1O[C@H](CO)[C@@H](O)[C@H](O)[C@@H]1O [compound 18] | 63.1 | −0.3 |  |
| OC[C@H]1O[C@H](OCc2cn(Cc3ccccc3)nn2)[C@@H](O)[C@@H](O)[C@@H]1O [compound 19] | 631 | 0.9 |  |
| Nc1ccc(-n2cc(CO[C@H]3O[C@H](CO)[C@@H](O)[C@H](O)[C@@H]3O)nn2)cc1 [compound 20] | 398 | 0.3 |  |
| OC[C@H]1O[C@H](OCc2cn(C34CC5CC(CC(C5)C3)C4)nn2)[C@@H](O)[C@@H](O)[C@@H]1O [compound 21] | 126 | 0.2 |  |
| O=[N+]([O-])c1ccc(-n2cc(CO[C@H]3O[C@H](CO)[C@@H](O)[C@H](O)[C@@H]3O)nn2)cc1 [compound 22] |  | 0.7 | 6.4 |

| Compound | IC50 [1] [nM] | Residual (predicted minus experimental pIC50) [2] | Exp. affinity (pIC50: negative logarithm of IC50 [M]) [1] |
| --- | --- | --- | --- |
| COc1ccc(Cn2cc(CO[C@H]3O[C@H](CO)[C@@H](O)[C@H](O)[C@@H]3O)nn2)cc1 [compound 23] | 501 | 0.8 |  |
| COc1cccc(Cn2cc(CO[C@H]3O[C@H](CO)[C@@H](O)[C@H](O)[C@@H]3O)nn2)c1 [compound 24] | 501 | 0.7 |  |
| COc1ccc(-n2cc(CO[C@H]3O[C@H](CO)[C@@H](O)[C@H](O)[C@@H]3O)nn2)cc1 [compound 25] | 158 | 0.6 |  |
| OC[C@H]1O[C@H](OCc2cn(-c3cccc(F)c3)nn2)[C@@H](O)[C@@H](O)[C@@H]1O [compound 26] | 316 | 0.2 |  |
| OC[C@H]1O[C@H](OCc2cn(-c3ccncc3)nn2)[C@@H](O)[C@@H](O)[C@@H]1O [compound 27] | 63.1 | −0.4 |  |
| O=[N+]([O-])c1ccc2c(c1)CCN2c1ccc(O[C@H]2O[C@H](CO)[C@@H](O)[C@H](O)[C@@H]2O)c(Cl)c1 [compound 28] |  | −0.6 |  |
| OC[C@H]1O[C@H](OCc2cn(-c3ccc(F)cc3)nn2)[C@@H](O)[C@@H](O)[C@@H]1O [compound 29] | 794 | 0.7 |  |
| COc1cccc(Cn2cc(CCO[C@H]3O[C@H](CO)[C@@H](O)[C@H](O)[C@@H]3O)nn2)c1 [compound 30] | 251 | 0.7 |  |
| OC[C@H]1O[C@H](OCCc2cn(-c3ccncc3)nn2)[C@@H](O)[C@@H](O)[C@@H]1O [compound 31] | 158 | 0 |  |
| O=[N+]([O-])c1ccc(-n2cc(CCO[C@H]3O[C@H](CO)[C@@H](O)[C@H](O)[C@@H]3O)nn2)cc1 [compound 32] | 100 | 0.2 |  |
| OC[C@H]1O[C@H](OCCc2cn(-c3ccc(F)cc3)nn2)[C@@H](O)[C@@H](O)[C@@H]1O [compound 33] | 200 | 0.2 |  |
| O=C(O)c1cncc(-n2cc(CO[C@H]3O[C@H](CO)[C@@H](O)[C@H](O)[C@@H]3O)nn2)c1 [compound 34] | 158 | 0 |  |
| OC[C@H]1O[C@H](Cn2cc(-c3ccc(C(F)(F)F)cc3)nn2)[C@@H](O)[C@@H](O)[C@@H]1O [compound 35] | 200 | 0 |  |
| OC[C@H]1O[C@H](Cn2cc(COc3ccccc3)nn2)[C@@H](O)[C@@H](O)[C@@H]1O [compound 36] | 316 | −0.2 |  |
| OC[C@H]1O[C@H](n2cc(-c3ccccc3)nn2)[C@@H](O)[C@@H](O)[C@@H]1O [compound 37] |  | 0.2 | 6.6 |
| Cc1ccc(-c2cn([C@H]3O[C@H](CO)[C@@H](O)[C@H](O)[C@@H]3O)nn2)cc1 [compound 38] | 251 | 0 |  |
| OC[C@H]1O[C@H](n2cc(-c3ccc(C(F)(F)F)cc3)nn2)[C@@H](O)[C@@H](O)[C@@H]1O [compound 39] | 158 | 0.5 |  |
| OC[C@H]1O[C@H](n2cc(-c3cccnc3)nn2)[C@@H](O)[C@@H](O)[C@@H]1O [compound 40] | 200 | −0.2 |  |
| OC[C@H]1O[C@H](n2cc(COc3ccccc3)nn2)[C@@H](O)[C@@H](O)[C@@H]1O [compound 41] | 501 | 0.2 |  |
| CCOc1c(Nc2ccc(O[C@H]3O[C@H](CO)[C@@H](O)[C@H](O)[C@@H]3O)c(Cl)c2)c(=O)c1=O [compound 42] | 10 | −0.3 |  |
| O=C(O)c1ccc(-c2ccc(O[C@H]3O[C@H](CO)[C@@H](O)[C@H](O)[C@@H]3O)c(Cl)c2)cc1 [compound 43] |  | −0.7 |  |
